For orientation: inhibition means the relative decrease from the control value, in per cent. For orientation: Ki means a measure of affinity in units of concentration, obtained from inhibition or displacement. In general, IC50 refers to the concentration needed to halve the response being measured. As a reminder, the EC50 is the concentration that produces a half-maximal response.

The source of these data is ChEMBL document CHEMBL3351714 (Bioorg Med Chem, 2014).

Assay [1] addresses T1, D(1A) dopamine receptor (Homo sapiens, UniProt P21728). The experiment in a line: Displacement of [3H]SCH23390 from D1 receptor (unknown origin) transfected in HEK293T cells at 10 uM after 50 mins by liquid scintillation counting analysis. The format is cell-based. The following applies: HEK-293T. (In general: In a radioligand displacement assay an active substance lowers the binding of a labelled ligand.)

Assay [2] has as its target T1, D(1A) dopamine receptor. The experiment in a line: Displacement of [3H]SCH23390 from D1 receptor (unknown origin) transfected in HEK293T cells after 50 mins by liquid scintillation counting analysis. It is filed as cell-based, HEK-293T.
Assay [3] deals with T2, D(2) dopamine receptor (Homo sapiens, UniProt P14416). Briefly: Displacement of [3H]Spiperone from D2 receptor (unknown origin) transfected in HEK293T cells after 50 mins by liquid scintillation counting analysis. It is filed as cell-based, HEK-293T.
T2 sequence (P14416 whole entry): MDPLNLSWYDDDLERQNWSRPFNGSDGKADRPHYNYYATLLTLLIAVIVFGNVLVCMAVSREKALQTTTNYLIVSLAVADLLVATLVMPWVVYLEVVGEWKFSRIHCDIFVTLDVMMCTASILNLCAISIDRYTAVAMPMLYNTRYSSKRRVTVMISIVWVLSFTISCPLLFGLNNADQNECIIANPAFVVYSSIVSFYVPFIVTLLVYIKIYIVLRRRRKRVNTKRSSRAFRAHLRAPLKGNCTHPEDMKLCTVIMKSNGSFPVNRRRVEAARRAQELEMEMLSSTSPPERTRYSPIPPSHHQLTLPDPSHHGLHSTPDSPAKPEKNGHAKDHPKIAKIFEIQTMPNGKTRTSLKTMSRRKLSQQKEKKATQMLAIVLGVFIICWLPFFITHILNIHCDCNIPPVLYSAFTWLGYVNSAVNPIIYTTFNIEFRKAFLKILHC
The target of assay [4] is T3, 5-hydroxytryptamine receptor 1A (Homo sapiens) (UniProt P08908).
T3 sequence (whole entry): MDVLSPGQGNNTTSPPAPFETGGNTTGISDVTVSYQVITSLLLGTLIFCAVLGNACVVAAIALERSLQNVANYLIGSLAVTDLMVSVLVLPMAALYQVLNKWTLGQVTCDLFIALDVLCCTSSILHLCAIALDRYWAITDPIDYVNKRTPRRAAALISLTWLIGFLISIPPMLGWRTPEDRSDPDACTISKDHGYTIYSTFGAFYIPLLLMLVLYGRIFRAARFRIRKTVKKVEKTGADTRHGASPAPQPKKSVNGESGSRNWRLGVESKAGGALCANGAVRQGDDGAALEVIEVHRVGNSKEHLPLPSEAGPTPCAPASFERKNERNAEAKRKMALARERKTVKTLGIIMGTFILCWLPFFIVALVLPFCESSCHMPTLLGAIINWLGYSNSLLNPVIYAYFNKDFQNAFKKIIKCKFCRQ
Briefly: Displacement of [3H]8-OH-DPAT from 5HT1A receptor (unknown origin) transfected in HEK293T cells at 10 uM after 50 mins by liquid scintillation counting analysis. The settings on record: HEK-293T. It is filed as cell-based.

The target of assay [5] is 5-hydroxytryptamine receptor 2A (Homo sapiens) (UniProt P28223). Briefly: Displacement of [3H]Ketanserin from 5HT2A receptor (unknown origin) transfected in HEK293T cells at 10 uM after 15 mins by liquid scintillation counting analysis. The following applies: HEK-293T. It is filed as cell-based.
5-hydroxytryptamine receptor 2A (Homo sapiens), sequence (P28223 whole entry): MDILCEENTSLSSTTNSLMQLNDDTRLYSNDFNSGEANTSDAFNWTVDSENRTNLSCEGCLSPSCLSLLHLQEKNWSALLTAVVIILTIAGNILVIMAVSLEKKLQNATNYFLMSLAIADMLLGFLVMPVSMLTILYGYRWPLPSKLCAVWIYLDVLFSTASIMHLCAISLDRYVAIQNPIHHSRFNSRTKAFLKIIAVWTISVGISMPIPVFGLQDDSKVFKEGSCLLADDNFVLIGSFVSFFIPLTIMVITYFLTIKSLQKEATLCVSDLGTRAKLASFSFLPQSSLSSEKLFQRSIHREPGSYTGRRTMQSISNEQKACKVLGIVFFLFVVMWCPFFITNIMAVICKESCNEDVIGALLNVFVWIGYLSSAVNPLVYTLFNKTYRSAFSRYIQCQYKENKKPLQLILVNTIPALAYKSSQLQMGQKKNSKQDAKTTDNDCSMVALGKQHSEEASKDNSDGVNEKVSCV
The next assay addresses D(3) dopamine receptor (Homo sapiens, UniProt P35462). The experiment in a line: Displacement of [3H]Spiperone from D3 receptor (unknown origin) transfected in HEK293T cells after 50 mins by liquid scintillation counting analysis. The format is cell-based, HEK-293T.
Assay [6] addresses T1, D(1A) dopamine receptor. The experiment in a line: Antagonist activity at D1 receptor (unknown origin) after 40 mins by [35S]GTP-gammaS binding assay in presence of SKF38393. It is filed as functional. (Binding of GTPγS marks nucleotide exchange on a G protein.)
Assay [7] deals with T2, D(2) dopamine receptor. Briefly: Antagonist activity at D2 receptor (unknown origin) after 40 mins by [35S]GTP-gammaS binding assay in presence of quinpirole. It is filed as functional.
For assay [8], the target named is T4, 5-hydroxytryptamine receptor 1A (Homo sapiens, UniProt P08908).
T4 sequence (P08908 whole entry): T3 sequence (whole entry)
Briefly: Agonist activity at 5HT1A receptor (unknown origin) after 20 mins by [35S]GTP-gammaS binding assay. It is filed as functional.

Assay [9] has as its target T2, D(2) dopamine receptor. Briefly: Displacement of [3H]Spiperone from D2 receptor (unknown origin) transfected in HEK293T cells at 10 uM after 50 mins by liquid scintillation counting analysis. The format is cell-based. The settings on record: HEK-293T.
The target in assay [10] is T4, 5-hydroxytryptamine receptor 1A. The experiment in a line: Displacement of [3H]8-OH-DPAT from 5HT1A receptor (unknown origin) transfected in HEK293T cells after 50 mins by liquid scintillation counting analysis. It is filed as cell-based, HEK-293T.
Assay [11] deals with T1, D(1A) dopamine receptor. The experiment in a line: Agonist activity at D1 receptor (unknown origin) after 40 mins by [35S]GTP-gammaS binding assay. It is filed as functional.

T1 sequence (P21728 whole entry): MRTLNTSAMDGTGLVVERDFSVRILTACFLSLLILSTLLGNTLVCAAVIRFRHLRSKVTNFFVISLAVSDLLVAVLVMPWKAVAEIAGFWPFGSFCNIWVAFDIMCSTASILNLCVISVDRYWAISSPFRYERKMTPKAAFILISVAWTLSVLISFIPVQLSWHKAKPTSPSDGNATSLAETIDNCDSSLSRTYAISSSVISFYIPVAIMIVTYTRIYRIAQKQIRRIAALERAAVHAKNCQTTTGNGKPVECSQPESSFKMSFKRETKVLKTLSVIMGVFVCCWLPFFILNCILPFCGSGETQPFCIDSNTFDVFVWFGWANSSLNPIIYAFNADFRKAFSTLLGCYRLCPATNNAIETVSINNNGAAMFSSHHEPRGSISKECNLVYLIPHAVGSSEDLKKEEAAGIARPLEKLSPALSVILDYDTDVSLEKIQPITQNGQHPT
D(3) dopamine receptor, sequence (P35462 whole entry): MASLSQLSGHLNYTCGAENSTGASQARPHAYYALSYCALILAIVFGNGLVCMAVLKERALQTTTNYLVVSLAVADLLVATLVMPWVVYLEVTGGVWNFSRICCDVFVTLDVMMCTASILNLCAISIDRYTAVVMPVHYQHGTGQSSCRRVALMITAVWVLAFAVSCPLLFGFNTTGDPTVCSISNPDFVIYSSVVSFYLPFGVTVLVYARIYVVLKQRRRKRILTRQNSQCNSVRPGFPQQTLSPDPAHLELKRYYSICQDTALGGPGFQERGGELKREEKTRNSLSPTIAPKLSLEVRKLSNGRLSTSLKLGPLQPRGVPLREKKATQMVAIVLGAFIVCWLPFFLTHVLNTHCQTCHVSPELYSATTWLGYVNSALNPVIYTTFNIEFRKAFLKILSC

Turning to `COc1cc2c(cc1O)[C@@H]1Cc3sc(CC(C)C)cc3CN1CC2`, the inhibition on D(1A) dopamine receptor [1] came out at 97.6%; in assay [4], 83.7%; in [5] it was 50.3%. Besides, the results for the Ki at D(1A) dopamine receptor [2], on D(2) dopamine receptor [3] and on D(3) dopamine receptor were 128 nM, 7.54 nM and 19.9 nM, respectively. Also, the IC50 at D(1A) dopamine receptor [6] was 2010 nM; on D(2) dopamine receptor [7] it was 160 nM. In assay [8], this molecule returned an EC50 of 590 nM.

Regarding `COc1cc2c(cc1O)[C@@H]1Cc3sc(CC4CCC4)cc3CN1CC2`, the inhibition at D(1A) dopamine receptor [1] was 97.1%; at D(2) dopamine receptor [9], 98.7%; in assay [4] it was 93.7%; in [5], 44.9%. Besides, the Ki turned out to be 379 nM on D(1A) dopamine receptor [2], 34.2 nM at D(2) dopamine receptor [3] and 778 nM in assay [10].

Turning to `COc1cc2c(cc1O)[C@@H]1Cc3sc(CC4CC4)cc3CN1CC2`, the inhibition on D(1A) dopamine receptor [1] is 96.8%; on D(2) dopamine receptor [9], 99%; in [4], 96.1%; in assay [5], 39.3%. The values for the Ki (on D(1A) dopamine receptor [2]; at D(2) dopamine receptor [3]; in assay [10]) were 66.2 nM, 11.5 nM and 175 nM, respectively.

Consider `CCCc1cc2c(s1)C[C@H]1c3cc(O)c(OC)cc3CCN1C2`, for which the inhibition is 98.2% at D(1A) dopamine receptor [1], 96.3% on D(2) dopamine receptor [9], 85.3% in [4] and 29.6% in [5]. Besides, the Ki worked out at 61.7 nM at D(1A) dopamine receptor [2] and 38.6 nM on D(2) dopamine receptor [3].

Regarding `COc1cc2c(cc1O)[C@@H]1Cc3sc(CC(C)Cl)cc3CN1CC2` (some centres undefined), the inhibition came to 91.5% at D(1A) dopamine receptor [1], 105% on D(2) dopamine receptor [9], 91.6% in [4] and 52.1% in [5]. For the same molecule, the Ki on D(1A) dopamine receptor [2] was 45.8 nM; at D(2) dopamine receptor [3] it was 16.5 nM; in assay [10], 285 nM.

Take `CCCCCc1cc2c(s1)C[C@H]1c3cc(O)c(OC)cc3CCN1C2`: the inhibition on D(1A) dopamine receptor [1] was found to be 94.7%; at D(2) dopamine receptor [9], 103%; in assay [4] it was 81.7%; in assay [5], 45.9%. The Ki at D(1A) dopamine receptor [2] came to 133 nM; on D(2) dopamine receptor [3] it was 46.7 nM.

`CCC(C)Cc1cc2c(s1)C[C@H]1c3cc(O)c(OC)cc3CCN1C2` (some centres undefined): the inhibition amounted to 92% on D(1A) dopamine receptor [1], 102% at D(2) dopamine receptor [9], 69.4% in [4] and 33.4% in [5]. Moreover, the Ki was determined as 403 nM at D(1A) dopamine receptor [2] and 29.1 nM at D(2) dopamine receptor [3].

Consider `COc1cc2c(cc1O)[C@@H]1Cc3ccc(O)c(OC)c3CN1CC2` [STEPHOLIDINE], for which the Ki on D(1A) dopamine receptor [2] came to 12.3 nM; at D(2) dopamine receptor [3], 105 nM; at D(3) dopamine receptor, 90 nM. On D(1A) dopamine receptor [11], this molecule gave an EC50 of 23 nM. Also, at D(2) dopamine receptor [7], the IC50 was 4380 nM.

With `COc1cc2c(cc1O)[C@@H]1Cc3sc(CCCCCl)cc3CN1CC2`, the inhibition at D(1A) dopamine receptor [1] was 91.1%; at D(2) dopamine receptor [9], 103%; in assay [4] it was 91.9%; in assay [5], 39.6%. In addition, the Ki at D(1A) dopamine receptor [2] came to 719 nM; on D(2) dopamine receptor [3] it was 12 nM; in assay [10], 655 nM.

Turning to `COc1cc2c(cc1O)[C@@H]1Cc3sc(CCCl)cc3CN1CC2`, the inhibition turned out to be 96.7% on D(1A) dopamine receptor [1], 98.4% at D(2) dopamine receptor [9], 90.8% in assay [4] and 34.8% in assay [5]. Also, the figures for the inhibition constant Ki at D(1A) dopamine receptor [2] and at D(2) dopamine receptor [3] were 16.4 nM and 34.4 nM, respectively.

For the molecule `COc1cc2c(cc1O)[C@@H]1Cc3sc(CC(C)(C)C)cc3CN1CC2`, the inhibition was 93.8% at D(1A) dopamine receptor [1], 97% on D(2) dopamine receptor [9], 79.8% in [4] and 19.3% in [5]. Further, the Ki is 634 nM on D(1A) dopamine receptor [2] and 190 nM at D(2) dopamine receptor [3].

For `CCc1cc2c(s1)C[C@H]1c3cc(O)c(OC)cc3CCN1C2`, the inhibition at D(1A) dopamine receptor [1] was 98.2%; at D(2) dopamine receptor [9], 98.5%; in assay [4], 92.1%; in assay [5] it was 45.1%. In addition, the Ki at D(1A) dopamine receptor [2] was found to be 26.3 nM; on D(2) dopamine receptor [3] it was 40.8 nM.

As to `COc1cc2c(cc1O)[C@@H]1Cc3sc(CCCC(C)C)cc3CN1CC2`, the inhibition came out at 68.1% at D(1A) dopamine receptor [1], 89% at D(2) dopamine receptor [9], 36.3% in assay [4] and 34.9% in assay [5].

Take `CCCCc1cc2c(s1)C[C@H]1c3cc(O)c(OC)cc3CCN1C2`: the inhibition at D(1A) dopamine receptor [1] is 98.6%; on D(2) dopamine receptor [9], 99.5%; in assay [4], 90%; in assay [5], 53.3%. Further, the Ki amounted to 62.2 nM on D(1A) dopamine receptor [2], 17.6 nM at D(2) dopamine receptor [3] and 39.9 nM on D(3) dopamine receptor. Besides, the IC50 was 600 nM at D(1A) dopamine receptor [6] and 910 nM at D(2) dopamine receptor [7]. In assay [8], a half-maximal effect (EC50) was put at 850 nM.

In the case of `COc1cc2c(cc1O)[C@@H]1Cc3sc(CCCCl)cc3CN1CC2`, the inhibition on D(1A) dopamine receptor [1] came to 94.3%; on D(2) dopamine receptor [9], 97.2%; in assay [4] it was 92.2%; in assay [5], 62.1%. The Ki amounted to 77 nM on D(1A) dopamine receptor [2] and 18.4 nM on D(2) dopamine receptor [3].

As to `COc1cc2c(cc1O)[C@@H]1Cc3sc(CCC(C)C)cc3CN1CC2`, the inhibition amounted to 88.8% at D(1A) dopamine receptor [1], 90.5% on D(2) dopamine receptor [9], 86.9% in assay [4] and 50.5% in [5]. At D(2) dopamine receptor [3], the Ki was found to be 79.5 nM.

Regarding `COc1cc2c(cc1O)[C@@H]1Cc3sccc3CN1CC2`, the inhibition stood at 98.1% at D(1A) dopamine receptor [1], 95.8% on D(2) dopamine receptor [9], 89.7% in [4] and 82.3% in assay [5]. Further, the inhibition constant (Ki) worked out at 87 nM on D(1A) dopamine receptor [2] and 88 nM on D(2) dopamine receptor [3].
